Assay results reported in patent publication US20220296615A1, “COMBINATION PRODUCT CONTAINING LIMONOID COMPOUND AND SULFONYLUREA COMPOUND” (ZHEJIANG YANGSHENGTANG INSTITUTE OF NATURAL MEDICATION CO., …, priority 2019, published 2022).

How the values were obtained:
Format in all cases: in vivo
[1] = tested on: STZ mice (mouse pancreatic islet β-cell injury model); experiment: Blood glucose in mouse pancreatic islet β-cell injury model (STZ), limonoid compound, glibenclamide or combination; conditions: STZ ICR mice, single administration 0.02 g/kg per day by gavage, two weeks, 1 h after last administration; model group 29.5 ± 4.6, normal 7.5 ± 0.6
Source text: The limonoid compound was selected from the group consisting of limonin, isolimonic acid, limonin glycoside, and isolimonic acid glycoside, and glibenclamide single administration group, limonin single administration group, isolimonic acid single administration group, limonin glycoside singe administration group, isolimonic acid glycoside singe administration group, and respective combination thereof with glibenclamide administration groups were set. Conditions of experimental feeding: ICR mice (20±2 g), aged 6 weeks, purchased from Zhejiang Academy of Medical Sciences, and subjected to experimental feeding after 7 days of preliminary feeding. It should be noted that the conditions for raising the mice were as follows: the temperature was 23±1° C., the humidity was 55±10%, the lights were turned on between 7 am and 7 pm (the lights were turned off at other time), and the mice were allowed to freely take in water and feed. The experimental feed was mouse growth-stable feed (GB […]), and the daily feeding and management of the animals were under the responsibility of the animal security department, which provided the animals with sufficient diet and fresh drinking water daily. […] The data were expressed as mean and standard deviation. The data before and after were analyzed by t-test, and P<0.05 was considered statistically significant.

[2] = tested on: db/db mice; experiment: Blood glucose and leptin in mouse type II diabetes model, limonoid compound, gliclazide or combination; conditions: single administration 0.04 g/kg per day by gavage, two weeks, 1 h after last administration, model group 23.9 ± 4.2, normal 6.0 ± 0.7
Source text: In the present example, db/db mice (line name BKS.Cg-Dock7^m+/+Lepr^db/Nju) were used to perform hypoglycemic efficacy evaluation test of animals (blood glucose level and leptin). The limonoid compound was selected from obacunone, isoobacunoic acid and obacunone glycoside, and gliclazide single administration group, obacunone single administration group, isoobacunoic acid single administration group, obacunone glycoside single administered group, and respective combination thereof with gliclazide administration groups were set. Conditions for experimental feeding: as type II diabetes model mice, 6-week-old SPF-grade db/db mice were purchased from the Nanjing Model Biology Institute, and subjected to experimental feeding after 7 days of preliminary feeding. It should be noted that the conditions for raising the mice were as follows: the temperature was 23±1° C., the humidity was 55±10%, the lights were turned on between 7 am and 7 pm (the lights were turned off at other time), and the mice were allowed to freely take in water and feed. […] The data were expressed as mean and standard deviation. The data before and after were analyzed by t-test, and P<0.05 was considered statistically significant.

[3] = tested on: STZ mice (type II diabetes with pancreatic islet damage and obesity); experiment: Blood glucose in mouse type II diabetes model with pancreatic islet damage and obesity (STZ + high-fat diet), limonoid compound, glimepiride or combination; conditions: STZ + high-fat diet ICR mice, single administration 0.5 g/kg per day by gavage, two weeks, 1 h after last administration; model group 29.6 ± 6.0, normal 5.9 ± 0.54
Source text: In this example, a mouse model of type II diabetes with pancreatic islet damage and obesity was established by multiple modeling ICR mice with a small dose of streptozotocin (STZ), following with continuous high-fat diets (referring to literature: […] Conditions of experimental feeding: ICR mice (20±2 g), aged 6 weeks, purchased from Zhejiang Academy of Medical Sciences, and subjected to experimental feeding after 7 days of preliminary feeding. It should be noted that the conditions for raising the mice were as follows: the temperature was 23±1° C., the humidity was 55±10%, the lights were turned on between 7 am and 7 pm (the lights were turned off at other time), and the mice were allowed to freely take in water and feed. The experimental feed was mouse growth-stable feed (GB […]), and the daily feeding and management of the animals were under the responsibility of the animal security department, which provided the animals with sufficient diet and fresh drinking water daily. […] The data were expressed as mean and standard deviation. The data before and after were analyzed by t-test, and P<0.05 was considered statistically significant.

[4] = tested on: STZ mice (mouse pancreatic islet β-cell injury model); experiment: Blood glucose in mouse pancreatic islet β-cell injury model (STZ), limonoid compound, glipizide or combination; conditions: STZ ICR mice, single administration 0.1 g/kg per day by gavage, two weeks, 1 h after last administration; model group 29.5 ± 4.6, normal 7.5 ± 0.6
Source text: In this example, a mouse pancreatic islet β-cell injury model was established by modeling ICR mice with streptozotocin (STZ) (Li Nan et al., Protective effect of pine pollen on kidney damage in diabetic nephropathy mice, Science and Technology Review, 2014, 32 (4/5): 95-99), and used to complete the evaluation of hypoglycemic effect in animals (this model could simulate pancreatic islet β-cell damage state of type I and type II diabetics). […]
Gavage doses: the gavage dose was 0.1 g/kg per day for the ichangin group, the gavage dose was 0.1 g/kg per day for the ichangensin group, the gavage dose was 0.1 g/kg per day for the ichangin glycoside group, the gavage dose of glipizide was 0.1 g/kg per day for the glipizide group, ichangin at a dose of 0.05 g/kg and glipizide at a dose of 0.05 g/kg were simultaneously gavaged per day for the ichangin/glipizide combination group, ichangensin at a dose of 0.05 g/kg and glipizide at a dose of 0.05 g/kg were simultaneously gavaged per day for the ichangensin/glipizide combination group, ichangin glycoside at a dose of 0.05 g/kg and glipizide at a dose of 0.05 g/kg were simultaneously gavaged per day for the ichangin glycoside/glipizide combination group, the gavage volume was 10 mL/kg, and the normal group and the model group were administrated with 10 mL/kg of distilled water. […] The data were expressed as mean and standard deviation. […]

[5] = tested on: db/db mice; experiment: Blood glucose and insulin in mouse type II diabetes model, limonoid compound, gliquidone or combination; conditions: single administration 0.2 g/kg per day by gavage, two weeks
Source text: In the present embodiment, the limonoid compound was selected from nomilin, deacetylnomilin, nomilin acid, deacetylnomilin acid glycoside, and gliquidone single administration group, nomilin single administration group, deacetylnomilin single administration group, nomilin acid single administered group, deacetylnomilin acid glycoside single administration group, and respective combination thereof with gliquidone administration groups were set.
Conditions for experimental feeding: as type II diabetes model mice, 6-week-old SPF-grade db/db mice were purchased from the Nanjing Model Biology Institute, and subjected to experimental feeding after 7 days of preliminary feeding. It should be noted that the conditions for raising the mice were as follows: the temperature was 23±1° C., the humidity was 55±10%, the lights were turned on between 7 am and 7 pm (the lights were turned off at other time), and the mice were allowed to freely take in water and feed. The experimental feed was mouse growth-stable feed (GB M2118), and the daily feeding and management of the animals were under the responsibility of the animal security department, which provided the animals with sufficient diet and fresh drinking water daily.
Experimental grouping: male db/db mice (20±2 g) were selected, 18 male mice in each group were tested, and drinking bottles were sterilized weekly. […]

SMILES: COc1ccc(Cl)cc1C(=O)NCCc1ccc(S(=O)(=O)NC(=O)NC2CCCCC2)cc1 [Glibenclamide, glibenclamide]
- Blood glucose value [1]: 18.3 ± 3.2 mmol/L

SMILES: Cc1ccc(S(=O)(=O)NC(=O)NN2CC3CCCC3C2)cc1 (stereo not drawn) [Gliclazide, gliclazide]
- Blood glucose value [2]: 11.5 ± 2.9 mmol/L

SMILES: CCC1=C(C)CN(C(=O)NCCc2ccc(S(=O)(=O)NC(=O)N[C@H]3CC[C@H](C)CC3)cc2)C1=O [Glimepiride, glimepiride]
- Blood glucose value [3]: 10.4 ± 2.1 mmol/L

SMILES: Cc1cnc(C(=O)NCCc2ccc(S(=O)(=O)NC(=O)NC3CCCCC3)cc2)cn1 [Glipizide, glipizide]
- Blood glucose value [4]: 14.5 ± 2.3 mmol/L

SMILES: COc1ccc2c(c1)C(=O)N(CCc1ccc(S(=O)(=O)NC(=O)NC3CCCCC3)cc1)C(=O)C2(C)C [gliquidone]
- Insulin ([5]; serum, ELISA, model group 10.56 ± 3.00, normal 1.05 ± 0.39): 7.82 ± 1.52 pg/mL
- Blood glucose value ([5]; 1 h after last administration, model group 23.9 ± 4.2, normal 6.0 ± 0.7): 10.3 ± 2.1 mmol/L
